These results are taken from patent publication US20230340364A1, “Fabric Softening Compositions” (Colgate-Palmolive Company, priority 2020, published 2023).

Each structure is given as a SMILES string.

The nature of this series: Dispersibility of the preservative into the finished product. Conditions: preservative post-added (IPBC 0.2%, DGH 0.1%). In kind it is physicochemical. On the procedure:
For 90 kg batch, initial 20% of water is heated to 47.7° C., the agitation is set to 32.5 Hz, then color (1 min of agitation), lactic acid (1 min of agitation), etidronic acid (1 min of agitation) and PQ7 (3 min of agitation) is added. Afterward, the pre-heated esterquat at 60-65° C. is added for 10 seconds and mixture for 5 min. After esterquat addition, the 75% of the remaining water (15° C.) is added and mixed for 5 min more. The final composition is completed with the addition of the rest of the components keeping the agitation at 35 Hz; thickener (10 min of agitation), blend of slurry fragrance capsules (water/capsules; 10:1) (5 min of agitation) and oil perfume (10 min of agitation). For the reference sample, 5% of additional water is post-added to the mixture (5 min of agitation). In the case of the control sample, 0.02% of DPIII is post added with the remaining water to cover the % of hole (5 min of agitation). For the alternative test compositions with IPBC, IPBC is post-added at 0.2% as is. […]
The negative control, positive control, Test composition 1, and Test composition 2, described in Table 1 of Example 1 are first evaluated for their dispersibility into the product and their impact on the viscosity, pH and stability (predictive methods). […] No significant difference in viscosity, pH and stability are identified for all the evaluated samples.

In the case of `CCCCCCCCCCCCNC(=N)N.Cl` [DGH, Dodecylguanidinee Hydrochloride], the “dispersibility by being directly post-added into the finished product” value is on record as “acceptable dispersibility”.

On to `CCCCNC(=O)OCC#CI` [IPBC, 3-iodo-2-propynyl butylcarbamate], for which the “dispersibility by being directly post-added into the finished product” value is reported as “acceptable dispersibility”.
